Patent US8278480B2, “Salts, aqueous liquid compositions containing salts of S-(+)-abscisic acid and methods of their preparation” (Valent BioSciences Corporation, priority 2008, dated 2012)
Values joined by “and” are separate entries in the source; they are usually repeats but may differ in a detail not shown here. Identical values can stand only once. Counter-ions that a name gives are not always drawn.

What was measured:
tomato plants = assay: Phytotoxicity observed on treated tomato plants; format: in vivo, Tomato (variety: Rutgers)
Experimental: (§1) All experiments were conducted using a randomized complete block experimental design. Solutions of (S)-(+)-abscisic acid and blank treatments (plain water) were applied by spray to the aerial parts of the tomato plants at the rate of 24 mL per 6 plants. Plants were then placed in a transparent chamber with humidity controlled within the range of 40 to 60% relative humidity. Leaf transpiration rates were measured at 1, 2, 3, 4 and 7 days after treatment. Measurements were conducted using a LI-1600 Steady State Porometer (LI-Cor, Lincoln, Nebr.). Each day the transpiration rate of the plants of each treatment group was normalized to a percentage of the transpiration rate of untreated plants (plants sprayed with water only) in order to control for day-to-day variability in plant status caused by changes of environmental conditions such as light intensity and temperature. Data for each plant was also averaged over a 3-day period to balance the short term and long term effect of (S)-(+)-abscisic acid on tomato leaf transpiration as well as to reduce experimental variability. It is important to note that no phytotoxicity was observed on any of the plants treated with the compositions of the present invention.

[1] = test system: tomato shoot fresh weight; assay: Tomato shoot fresh weight 7 days after treatment (growth suppression); format: in vivo, Tomato (variety: Rutgers); conditions: foliar spray
Experimental: (§2) Preparation of plant specimens for use in the treatment studies of the EXAMPLES that follow was carried out as follows. Tomato (variety: Rutgers) seeds were sown in an 18-cell flat filled with Promix PGX (available from Premier Horticulture Inc., Quakertown Pa.) and grown for 3 weeks to allow for germination and initial growth. Plants were then transplanted into pots (18 cm in diameter and 18 cm in height), filled with Promix BX (available from Premier Horticulture Inc., Quakertown Pa.), and grown for one or two more weeks before treatment, depending on temperature and available light. Plants received daily irrigation and weekly fertilizer (1 g/L all purpose fertilizer 20-20-20, available from The Scotts Company, Marysville, Ohio).
(§3) All treatment solutions were made up with distilled water. The (S)-(+)-abscisic acid (95% active ingredient) is available from Lomon BioTechnology Co., Ltd. (Shichuan, China). The prior art aqueous solution composition of the ammonium salt of (S)-(+)-abscisic acid as prepared in Example 11 above was used as a positive treatment control for most of the studies.
as §1, with “variability.” for “variability. It is important to note that no phytotoxicity was observed on any of the plants treated with the compositions of the present invention.”
In this experiment, the fresh weights of the aerial parts of the tomato plants were also measured at the end of the experiment, 7 days after treatments were applied, in order to assess the relative growth suppressing activity of the compositions.

[2] = test system: tomato leaf transpiration; assay: Tomato leaf transpiration inhibition after foliar spray (LI-1600 porometer); format: in vivo, Tomato (variety: Rutgers); conditions: for Transpiration rate (% of control), 1 day after treatment: day 1; for Transpiration rate (% of control), 2 days after treatment: day 2; for Transpiration rate (% of control), 3 days after treatment: day 3; for Transpiration rate (% of control), 4 days after treatment: day 4; for Transpiration rate (% of control), 7 days after treatment: day 7; for ABA dose to achieve 50% inhibition of transpiration: from linear regression of 3-day average transpiration rate on log dose; for Transpiration rate (% of control), 9 days after treatment: day 9
Experimental: as §2, §3
as §1, with “variability.” for “variability. It is important to note that no phytotoxicity was observed on any of the plants treated with the compositions of the present invention.”
The regression equation of each (S)-(+)-abscisic acid salt as well as abscisic acid concentrations for 50% inhibition of transpiration were calculated. The relative potency of two ABA salts is the reciprocal of the ratio of (S)-(+)-abscisic acid concentration required for 50% transpiration inhibition for each composition.

tomato plant height = assay: Tomato plant height 7 days after treatment (growth suppression); format: in vivo, Tomato (variety: Rutgers); conditions: foliar spray
Experimental: as §2, §3, §1
In this experiment, the fresh weights of the aerial parts of the tomato plants and their heights were also measured at the end of the experiment, 7 days after treatments were applied, in order to assess the relative growth suppressing activity of the compositions.

[3] = cited from earlier work
[4] = tomato plants after foliar spray
[5] = 75 ppm (0.3 mg) (S)-(+)-abscisic acid
[6] = 250 ppm (1 mg) (S)-(+)-abscisic acid, additives as in label
[7] = 750 ppm (3 mg) (S)-(+)-abscisic acid
[8] = 2500 ppm (10 mg) (S)-(+)-abscisic acid
[9] = (S)-(+)-abscisic acid dose 0.3 mg, foliar spray
[10] = (S)-(+)-abscisic acid dose 1 mg, foliar spray
[11] = (S)-(+)-abscisic acid dose 3 mg, foliar spray
[12] = (S)-(+)-abscisic acid dose 10 mg, foliar spray
[13] = foliar spray, 250 ppm (S)-(+)-abscisic acid (1 mg), additives as in label
[14] = reciprocal of ratio of doses for 50% transpiration inhibition

SMILES	Phytotoxicity (tomato plants; [4])	Fresh weight (g) 7 days after treatment [1, 5]	Fresh weight (g) 7 days after treatment [1, 6]	Fresh weight (g) 7 days after treatment [1, 7]	Fresh weight (g) 7 days after treatment [1, 8]	Transpiration rate (% of control), Average of 3 days after treatment [2, 9]	Transpiration rate (% of control), Average of 3 days after treatment [2, 10]	Transpiration rate (% of control), Average of 3 days after treatment [2, 11]	Transpiration rate (% of control), Average of 3 days after treatment [2, 12]	Transpiration rate (% of control), 7-Day Average [2, 13]	Transpiration rate (% of control), 1 day after treatment [2, 13]	Transpiration rate (% of control), 2 days after treatment [2, 13]	Transpiration rate (% of control), 3 days after treatment [2, 13]	Transpiration rate (% of control), 4 days after treatment [2, 13]	Transpiration rate (% of control), 7 days after treatment [2, 13]	ABA dose to achieve 50% inhibition of transpiration [2]	Relative potency compared to the ammonium salt composition of Comparative Example 11 [2, 14]	Transpiration rate (% of control), 9-Day Average [2, 13]	Transpiration rate (% of control), 9 days after treatment [2, 13]	other results
CC1=CC(=O)CC(C)(C)[C@@]1(O)/C=C/C(C)=C\C(=O)[O-].[Rb+] [Example 1, Rubidium Salt of (S)-(+)-Abscisic Acid]	without producing phytotoxicity	18.6 g	18.1 g	17.2 g	16.4 g	77 % of control	67 % of control	54 % of control	39 % of control	75.9 % of control	55.8 % of control	68.0 % of control	76.5 % of control	88.2 % of control	91.0 % of control	4.05 mg	2.4 times			
CC1=CC(=O)CC(C)(C)[C@@]1(O)/C=C/C(C)=C\C(=O)[O-].[Cs+] [Example 2, Cesium Salt of (S)-(+)-Abscisic Acid]	without producing phytotoxicity	16.2 g	15.3 g	14.7 g	11.3 g	72 % of control	57 % of control	47 % of control	37 % of control	67.8 % of control	47.1 % of control	59.0 % of control	63.9 % of control	77.8 % of control	91.1 % of control	2.41 mg	3.2 times and 2.8 times			
CC1=CC(=O)CC(C)(C)[C@@]1(O)/C=C/C(C)=C\C(=O)[O-].CCCC[N+](CCCC)(CCCC)CCCC [Example 4, Tetrabutylammonium Salt of (S)-(+)-Abscisic Acid]	without producing phytotoxicity	15.3 g	14.8 g	12.5 g	11.4 g	84 % of control and 80 % of control	72 % of control and 61 % of control	56 % of control and 47 % of control	38 % of control and 29 % of control	70.9 % of control	63.4 % of control and 55.1 % of control	73.9 % of control and 61.0 % of control	77.8 % of control and 68.3 % of control	79.3 % of control and 77.6 % of control	89.2 % of control and 92.4 % of control	4.35 mg and 2.33 mg		79.7 % of control	94.6 % of control	Relative potency compared to the tributylamine salt composition of Comparative Example 14 [2, 14]: 1.9 times
CC1=CC(=O)CC(C)(C)[C@@]1(O)/C=C/C(C)=C\C(=O)[O-].C[N+](C)(C)CCO [Example 5, Choline Salt of (S)-(+)-abscisic Acid]		18.2 g	17.5 g	16.8 g	16.0 g	78 % of control	63 % of control	53 % of control	41 % of control	72.5 % of control	52.3 % of control	63.7 % of control	73.8 % of control	79.0 % of control	93.4 % of control	4.02 mg	2.6 times and 4.2 times			Phytotoxicity (tomato plants; in vivo): without producing phytotoxicity
CC1=CC(=O)CC(C)(C)[C@@]1(O)/C=C/C(C)=C\C(=O)O [Example 11, Ammonium Salt of (S)-(+)-Abscisic Acid, reference compound]						82 % of control and 80 % of control and 77 % of control and 95 % of control and 90 % of control and 81 % of control and 88 % of control	72 % of control and 69 % of control and 65 % of control and 78 % of control and 70 % of control and 77 % of control and 71 % of control	60 % of control and 58 % of control and 55 % of control and 67 % of control and 59 % of control and 62 % of control and 57 % of control	50 % of control and 48 % of control and 44 % of control and 53 % of control and 51 % of control and 52 % of control and 55 % of control and 49 % of control									87.3 % of control	100.8 % of control	Transpiration rate (% of control), 4 Day Average ([2]; foliar spray, 250 ppm (S)-(+)-abscisic acid (1 mg), additives as in label, 4-day average): 75.4 % of control; Plant height (cm) 7 days after treatment (tomato plant height; [5]): 19.9 cm; Plant height (cm) 7 days after treatment (tomato plant height; [6]): 19.8 cm and 32.1 cm; Plant height (cm) 7 days after treatment (tomato plant height; [7]): 18.6 cm; Plant height (cm) 7 days after treatment (tomato plant height; [8]): 18.6 cm
CC1=CC(=O)CC(C)(C)[C@@]1(O)/C=C/C(C)=C\C(=O)O [abscisic acid, 2-cis-,4-trans-(S)-(+)-abscisic acid]																				Solubility in propylene glycol ([3]; propylene glycol): poorly soluble; Solubility in water (highest concentration achievable) ([3]; pure water, room / ordinary ambient temperature): ≤ 3000 ppm
